# Patent publication US8697747B2, “Enhancing coagulation or reducing fibrinolysis” (THe UAB Research Foundation, priority 2009, dated 2014)
# Assays:
# pooled normal plasma = experiment: Thrombelastography/CLSM in pooled normal plasma (INR 1.0) with or without tPA; type: biochemical, human
# Procedure: Pooled normal plasma (George King Bio-Medical, Overland Park, Kans.) anticoagulated with sodium citrate was utilized for experimentation. […] Plasma anticoagulated with sodium citrate procured from anonymous donors treated with warfarin was also obtained from the same vendor.
# Plasma sample composition of experiments without tPA addition. The final volume for all subsequently described plasma sample mixtures was 359.6 μL. Sample composition consisted of 326 μL of plasma, 10 μL of tissue factor reagent (0.1% final concentration in dH2O; Instrumentation Laboratory, Lexington, Mass.), 3.6 μL of dimethyl sulfoxide (DMSO) or DMSO with CORM-2 (100 μM final concentration; Sigma-Aldrich, St. Louis, Mo.), and 20 μL of 200 mM CaCl2. Tissue factor stock was kept on ice prior to use and was remade every two hours. […] DMSO was added to dry CORM-2 just prior to placement into the plasma mixture. Six replicate experiments were performed with pooled normal plasma with or without CORM-2 added, whereas plasma obtained from subjects treated with warfarin underwent singlicate experiments with or without CORM-2 exposure.
# Plasma sample composition of experiments with tPA addition. As in the series of experiments without tPA addition, the final volume of plasma sample mixtures was 359.6 μL. Sample composition consisted of 316 μL of plasma; 10 μL of tissue factor reagent (0.1% final concentration); 3.6 μL of DMSO without or with CORM-2 (100 μM final concentration); 10 μL of tPA diluted with 10 mM potassium phosphate buffer (pH 7.4) for a final activity of 100 IU/mL; and 20 μL of 200 mM CaCl2. As with tissue factor reagent, tPA stock was kept on ice prior to use and was remade every two hours. Six replicate experiments were performed with pooled normal plasma with or without CORM-2 added, whereas plasma obtained from subjects treated with warfarin underwent singlicate experiments with or without CORM-2 exposure.
# Clot Lifespan Model Analyses. Plasma sample mixtures were placed in a disposable cup in a computer-controlled THROMBELASTOGRAPH® hemostasis system (Model 5000, Haemoscope Corp., Niles, Ill.), with addition of CaCl2 as the last step to initiate clotting. In the first series of experiments, no tPA was added and data were collected until clot strength (maximum amplitude) was stable. In the second series of experiments in which tPA was added, data were collected until clot lysis time occurred. […] The nomenclature used to describe these phenomena is as follows: Time to maximum rate of thrombus generation (TMRTG): This is the time interval (sec) observed prior to maximum speed of clot growth. Maximum rate of thrombus generation (MRTG): This is the maximum velocity of clot growth observed (dynes/cm^2/sec). Total Thrombus Generation (TTG): This is the total area under the velocity curve during clot growth (dynes/cm^2), representing the amount of clot strength generated during clot growth. Time to maximum rate of lysis (TMRL): This is the time interval (sec) measured from the time of maximum strength to the time when the velocity of clot disintegration is maximal. Maximum Rate of Lysis (MRL): This is the maximum velocity of clot disintegration observed (—dynes/cm^2/sec). Area of Clot Lysis (ACL): This is the total area under the velocity curve during clot disintegration (−dynes/cm^2), representing the amount of clot strength lost during clot disintegration.
# [1] = tested on: factor VII deficient plasma; experiment: Thrombelastography, factor VII deficient plasma; type: biochemical, human; conditions: 100 mmol CORM-2 vs control; FVII deficient plasma, 4 individuals
# Procedure: Plasma deficient (<1% normal activity) in factor VIII (FVIII; 11 individuals), factor IX (FIX; 5 individuals), or factor VII (FVII; 4 individuals) was obtained from anonymous donors (George King Bio-Medical, Overland Park, Kans.) and was anticoagulated with sodium citrate. The final volume for all subsequently described plasma sample mixtures was […]. Sample composition consisted of […] of plasma, […] of tissue factor (0.1% final concentration in 0.9% NaCl; Diagnostica Stago, Asnieres, France), 3.6 mL of dimethyl sulfoxide (DMSO) or DMSO with CORM-2 ([…]; Sigma-Aldrich, St. Louis, Mo.), and 20 mL of […] CaCl2. […] (Motterlini et al. 2005). While CORM-2 decays slowly in DMSO, DMSO was added to the dry compound just prior to placement into the plasma mixture.
# Plasma sample mixtures were placed in a disposable cup in a computer-controlled THROMBELASTOGRAPH® hemostasis system (Model 5000; Haemoscope Corp., Niles, Ill.), with addition of CaCl2 as the last step to initiate clotting. Data were collected until clot strength stabilized (maximum amplitude).
# Statistical analyses. […] A paired student's t-test was used to analyze the effects of CORM-2 exposure in FVIII deficient individuals. The results of the FIX and FVII deficient groups were presented but not statistically analyzed secondary to the small number of individuals in each cohort. […] Statistical analyses and graphical representation of the data were generated with commercially available software (SigmaPlot 11.0; Systat Software Inc., San Jose, Calif.; CorelDRAW 12.0; Corel Corp., Ottawa, Ontario, Canada). A P value of less than 0.05 was considered significant.
# [2] = no tPA, 100 μM CORM-2, mean ± SD, n=6
# [3] = tPA 100 U/ml, 100 μM CORM-2, mean ± SD, n=6
# [4] = tPA 100 U/ml, 100 μM vs 0 μM CORM-2
structure (smiles),measurement,setting,value
"[C-]#[O+].[C-]#[O+].[C-]#[O+].[C-]#[O+].[C-]#[O+].[C-]#[O+].[Cl][Ru][Cl].[Cl][Ru][Cl] [CORM-2, tricarbonyldichlororuthenium (II) dimer]",MRTG (maximum rate of thrombus generation),pooled normal plasma; [2],15.0 ± 2.4 dynes/cm^2/sec
same,TMRTG (time to maximum rate of thrombus generation),pooled normal plasma; [2],2.26 ± 0.03 min
same,TTG (total thrombus generation),pooled normal plasma; [2],285 ± 38 dynes/cm^2
same,Percent Change of MRTG,"pooled normal plasma; no tPA, 100 μM vs 0 μM CORM-2",102%
same,Percent Change of TMRTG,"pooled normal plasma; no tPA, 100 μM vs 0 μM CORM-2",−5%
same,Percent Change of TTG,"pooled normal plasma; no tPA, 100 μM vs 0 μM CORM-2",70%
same,CGT (clot growth time),pooled normal plasma; [3],7.00 ± 0.94 min
same,CLS (clot lifespan),pooled normal plasma; [3],39.07 ± 2.82 min
same,CLT (clot lysis time),pooled normal plasma; [3],32.07 ± 3.15 min
same,MRL (maximum rate of lysis),pooled normal plasma; [3],−2.4 ± 0.5 −dynes/cm^2/sec
same,MRTG (maximum rate of thrombus generation),pooled normal plasma; [3],15.2 ± 1.3 dynes/cm^2/sec
same,TMRL (time to maximum rate of lysis),pooled normal plasma; [3],22.92 ± 1.93 min
same,TMRTG (time to maximum rate of thrombus generation),pooled normal plasma; [3],2.14 ± 0.05 min
same,TTG (total thrombus generation),pooled normal plasma; [3],284 ± 27 dynes/cm^2
same,Percent Change of CGT,pooled normal plasma; [4],58%
same,Percent Change of CLS,pooled normal plasma; [4],91%
same,Percent Change of CLT,pooled normal plasma; [4],100%
same,Percent Change of MRL,pooled normal plasma; [4],68%
same,Percent Change of MRTG,pooled normal plasma; [4],97%
same,Percent Change of TMRL,pooled normal plasma; [4],103%
same,Percent Change of TMRTG,pooled normal plasma; [4],−2%
same,Percent Change of TTG,pooled normal plasma; [4],106%
same,effect on MRTG,[1],an increase in MRTG and TTG in all FVII deficient plasma donors
same,effect on TMRTG,[1],an increase in TMRTG in all individuals tested
same,effect on TTG,[1],an increase in MRTG and TTG in all FVII deficient plasma donors
